Results reported in ChEMBL document CHEMBL1201862, “PubChem BioAssay data set” (2004).
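Step 1: Grow cells in 96-well plates. Step 2: Expose to compound for 48 hours at 5 concentrations. Step 3: Interpolate endpoints linearly; if unreached, use highest concentration. The concentration for 50% growth inhibition is given as GI50.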 Calls of active or inactive are those of the source. Cut-off read from the data, not from the text of the source: active = GI50 up to about 1.1 µM and inactive = higher.

Experiments:
Test in all cases: NCI-60 cell line screen, 48 h
A498 = test system: A498
EKVX = test system: EKVX
HCC 2998 = test system: HCC 2998
HOP-62 = test system: HOP-62
HT-29 = test system: HT-29
MDA-MB-435 = test system: MDA-MB-435
Malme-3M = test system: Malme-3M
NCI/ADR-RES = test system: NCI/ADR-RES
OVCAR-4 = test system: OVCAR-4
OVCAR-8 = test system: OVCAR-8
PC-3 = test system: PC-3
RXF 393 = test system: RXF 393
SF-295 = test system: SF-295
SK-MEL-2 = test system: SK-MEL-2
SK-OV-3 = test system: SK-OV-3
SW-620 = test system: SW-620
UACC-257 = test system: UACC-257
UACC-62 = test system: UACC-62
UO-31 = test system: UO-31
KM12 = test system: KM12

| Structure (SMILES) | GI50 (A498) | GI50 (EKVX) | GI50 (HCC 2998) | GI50 (HOP-62) | GI50 (HT-29) | GI50 (MDA-MB-435) | GI50 (Malme-3M) | GI50 (NCI/ADR-RES) | GI50 (OVCAR-4) | GI50 (OVCAR-8) | GI50 (PC-3) | GI50 (RXF 393) | GI50 (SF-295) | GI50 (SK-MEL-2) | GI50 (SK-OV-3) | GI50 (SW-620) | GI50 (UACC-257) | GI50 (UACC-62) | GI50 (UO-31) | GI50 (KM12) |
| --- | --- | --- | --- | --- | --- | --- | --- | --- | --- | --- | --- | --- | --- | --- | --- | --- | --- | --- | --- | --- |
| CC(C)(C)OC(=O)NNCC(O)COc1ccccc1 (stereo not drawn) | > 100 µM (inactive) | > 100 µM (inactive) | > 100 µM (inactive) | > 100 µM (inactive) | > 100 µM (inactive) | > 100 µM (inactive) | > 100 µM (inactive) | > 100 µM (inactive) | > 100 µM (inactive) | > 100 µM (inactive) | > 100 µM (inactive) | > 100 µM (inactive) | > 100 µM (inactive) | > 100 µM (inactive) | > 100 µM (inactive) | > 100 µM (inactive) | > 100 µM (inactive) | > 100 µM (inactive) | > 100 µM (inactive) | – |
| C=C1C2C[C@@H]3O[C@H]4C[C@H]5O[C@@]6(C[C@@H]7O[C@]8(C[C@H](C)[C@@H]9O[C@@H]%10CC(CO)O[C@@H]%10C[C@@H]9O8)C[C@H](C)[C@@H]7O6)C[C@H]5O[C@H]4[C@H](C)[C@H]3OC(=O)C[C@H]3CC[C@@H]4OC5[C@H]6O[C@]7(CC[C@H]8CC(=C)[C@H](CC[C@@H](C[C@H]1C)O2)O8)CC6O[C@@H]5[C@@H](O7)[C@H]4O3 (stereo partly drawn) | 0.000502 µM (active) | < 0.0001 µM (active) | < 0.0001 µM (active) | < 0.0001 µM (active) | – | < 0.0001 µM (active) | < 0.0001 µM (active) | < 0.0001 µM (active) | > 0.635 µM (active) | < 0.0001 µM (active) | < 0.0001 µM (active) | < 0.0001 µM (active) | < 0.0001 µM (active) | < 0.0001 µM (active) | < 0.0001 µM (active) | < 0.0001 µM (active) | < 0.0001 µM (active) | < 0.0001 µM (active) | < 0.0001 µM (active) | < 0.0001 µM (active) |
| CCN(CC)CCC(=O)/C=C/c1ccccc1 | 17.8 µM (inactive) | 13.9 µM (inactive) | 19.5 µM (inactive) | 20.3 µM (inactive) | 5.05 µM (inactive) | 11 µM (inactive) | 15.9 µM (inactive) | 17.5 µM (inactive) | 21.1 µM (inactive) | 19 µM (inactive) | 12.8 µM (inactive) | 9.25 µM (inactive) | 18.8 µM (inactive) | 23.3 µM (inactive) | – | 5.89 µM (inactive) | 16.2 µM (inactive) | – | 13.1 µM (inactive) | 6.5 µM (inactive) |
| CC[C@@]1(O)C(=O)OCc2c1cc1n(c2=O)Cc2c-1nc1ccc(O)cc1c2[Si](C)(C)C(C)(C)C [AR-67] | 0.0211 µM (active) | 0.333 µM (active) | 0.0205 µM (active) | – | 0.0855 µM (active) | < 0.01 µM (active) | < 0.01 µM (active) | 0.0324 µM (active) | 0.0282 µM (active) | < 0.0123 µM (active) | < 0.0208 µM (active) | < 0.01 µM (active) | – | 0.125 µM (active) | 0.557 µM (active) | < 0.01 µM (active) | < 0.0149 µM (active) | < 0.01 µM (active) | < 0.01 µM (active) | 0.024 µM (active) |
| CC(C)=CCc1c2c(c3occ(-c4ccc(O)cc4)c(=O)c3c1O)CC(C(C)(C)O)O2 (stereo not drawn) [SENEGALENSIN] | 16.1 µM (inactive) | – | 11.2 µM (inactive) | 18.7 µM (inactive) | 12 µM (inactive) | 16.6 µM (inactive) | 21.3 µM (inactive) | 15.7 µM (inactive) | 12.9 µM (inactive) | 17 µM (inactive) | 13.8 µM (inactive) | 13.6 µM (inactive) | 12.1 µM (inactive) | 14.6 µM (inactive) | 18.8 µM (inactive) | 21.7 µM (inactive) | 15.7 µM (inactive) | 16.4 µM (inactive) | 10 µM (inactive) | 16.8 µM (inactive) |
